# Laboratory results: patent US20180002319A1, “MACROCYCLIC PICOLINAMIDE COMPOUNDS WITH FUNGICIDAL ACTIVITY” (DOW AGROSCIENCES LLC, priority 2014, published 2018)
# Read-outs that look alike come from different tables or passages of the source.
# Columns and labels:
# Puccinia triticina = experiment: Wheat Brown Rust (PUCCRT) fungicidal activity; assay type: in vivo; settings: for pest or weed control at 100 ppm: High Volume application; for pest or weed control at 121.5 g/ha: Low Volume application, 121.5 g/H
# Protocol: (§1) Technical grades of materials were dissolved in acetone, which were then mixed with nine volumes of H2O containing 110 ppm Triton X-100. The fungicide solutions were applied onto wheat seedlings using an automated booth sprayer to run-off. All sprayed plants were allowed to air dry prior to further handling. All fungicides were evaluated using the aforementioned method for their activity vs. all target diseases, unless stated otherwise. Wheat leaf blotch and brown rust activity were also evaluated using track spray applications, in which case the fungicides were formulated as EC formulations, containing 0.1% Trycol 5941 in the spray solutions. Wheat plants (variety Yuma) were grown from seed in a greenhouse in 50% mineral soil/50% soil-less Metro mix until the first leaf was fully emerged, with 7-10 seedlings per pot. These plants were inoculated with an aqueous spore suspension of Zymoseptoria tritici either prior to or after fungicide treatments. After inoculation the plants were kept in 100% relative humidity (one day in a dark dew chamber followed by two to three days in a lighted dew chamber at 20° C.) to permit spores to germinate and infect the leaf. The plants were then transferred to a greenhouse set at 20° C. for disease to develop. When disease symptoms were fully expressed on the 1st leaves of untreated plants, infection levels were assessed on a scale of 0 to 100 percent disease severity. Percent disease control was calculated using the ratio of disease severity on treated plants relative to untreated plants. Example B: Evaluation of Fungicidal Activity: Wheat Brown Rust (Puccinia triticina; Bayer Code PUCCRT) Wheat plants (variety Yuma) were grown from seed in a greenhouse in 50% mineral soil/50% soil-less Metro mix until the first leaf was fully emerged, with 7-10 seedlings per pot. These plants were inoculated with an aqueous spore suspension of Puccinia triticina either prior to or after fungicide treatments. After inoculation the plants were kept in a dark dew room at 22° C. with 100% relative humidity overnight to permit spores to germinate and infect the leaf. The plants were then transferred to a greenhouse set at 24° C. for disease to develop. Fungicide formulation, application and disease assessment followed the procedures as described in the Example A.
# Zymoseptoria tritici = experiment: Leaf Blotch of Wheat (SEPTTR) fungicidal activity; assay type: in vivo; settings: wheat leaf blotch; for pest or weed control at 100 ppm: High Volume application; for pest or weed control at 121.5 g/ha: Low Volume application, 121.5 g/H
# Protocol: as §1, with “Example A: Evaluation of Fungicidal Activity: Leaf Blotch of Wheat (Zymoseptoria tritici; Bayer Code […]) Technical” for “Technical”, “plants.” for “plants. Example B: Evaluation of Fungicidal Activity: Wheat Brown Rust (Puccinia triticina; Bayer Code PUCCRT) Wheat plants (variety Yuma) were grown from seed in a greenhouse in 50% mineral soil/50% soil-less Metro mix until the first leaf was fully emerged, with 7-10 seedlings per pot. These plants were inoculated with an aqueous spore suspension of Puccinia triticina either prior to or after fungicide treatments. After inoculation the plants were kept in a dark dew room at 22° C. with 100% relative humidity overnight to permit spores to germinate and infect the leaf. The plants were then transferred to a greenhouse set at 24° C. for disease to develop. Fungicide formulation, application and disease assessment followed the procedures as described in the Example A.”
# [1] = 24 h, 1 day protectant, read-out: PUCCRT disease control, 1DP (1 Day Protectant)
# [2] = 72 h, 3 day curative, read-out: PUCCRT disease control, 3DC (3 Day Curative)
# [3] = 24 h, 1 day protectant, read-out: SEPTTR disease control, 1DP (1 Day Protectant)
# [4] = 72 h, 3 day curative, read-out: SEPTTR disease control, 3DC (3 Day Curative)
Structure (SMILES),pest or weed control at 100 ppm (Puccinia triticina; [1]),pest or weed control at 121.5 g/ha (Puccinia triticina; [1]),pest or weed control at 100 ppm (Puccinia triticina; [2]),pest or weed control at 100 ppm (Zymoseptoria tritici; [3]),pest or weed control at 121.5 g/ha (Zymoseptoria tritici; [3]),pest or weed control at 121.5 g/ha (Zymoseptoria tritici; [4]),pest or weed control at 100 ppm (Zymoseptoria tritici; [4]),pest or weed control at 121.5 g/ha (Puccinia triticina; [2])
COc1ccnc(C(=O)N[C@H]2COCC[C@H](OCc3ccccc3)[C@@H](OCc3ccccc3)[C@H](C)OC2=O)c1OCOC(C)=O [Compound 1],> 80%,> 80%,> 80%,> 80%,> 80%,< 80%,–,–
CCCCO[C@H]1CCOC[C@H](NC(=O)c2nccc(OC)c2OCOC(C)=O)C(=O)O[C@@H](C)[C@@H]1OCC(C)C [Compound 7],> 80%,–,> 80%,> 80%,–,–,< 80%,–
COc1ccnc(C(=O)N[C@H]2CCCC[C@H](OCc3ccccc3)[C@@H](OCc3ccccc3)[C@H](C)OC2=O)c1OCOC(C)=O [Compound 8],> 80%,> 80%,> 80%,> 80%,> 80%,> 80%,< 80%,> 80%
COc1ccnc(C(=O)N[C@H]2CCCC[C@H](OCc3ccccc3)[C@@H](OCc3ccccc3)[C@H](C)OC2=O)c1OC(C)=O [Compound 9],> 80%,> 80%,> 80%,> 80%,> 80%,> 80%,< 80%,< 80%
COc1ccnc(C(=O)N[C@H]2CCCC[C@H](Oc3ccccc3)[C@@H](OCC(C)C)[C@H](C)OC2=O)c1OCOC(C)=O [Compound 10],> 80%,–,> 80%,> 80%,–,–,> 80%,–
COc1ccnc(C(=O)N[C@H]2CCCC[C@H](OC)[C@@H](Oc3ccccc3)[C@H](C)OC2=O)c1OCOC(C)=O [Compound 11],> 80%,> 80%,> 80%,> 80%,> 80%,> 80%,> 80%,> 80%
COc1ccnc(C(=O)N[C@H]2CCCC[C@H](OC)[C@@H](OCC(C)C)[C@H](C)OC2=O)c1OCOC(C)=O [Compound 12],> 80%,–,> 80%,> 80%,–,–,> 80%,–
COc1ccnc(C(=O)N[C@H]2CCCC[C@H](OCC(C)C)[C@@H](Oc3ccccc3)[C@H](C)OC2=O)c1OCOC(C)=O [Compound 13],> 80%,> 80%,> 80%,> 80%,> 80%,> 80%,> 80%,> 80%
COc1ccnc(C(=O)N[C@H]2CCCC[C@H](OCC(C)C)[C@@H](OCC(C)C)[C@H](C)OC2=O)c1OCOC(C)=O [Compound 14],> 80%,> 80%,> 80%,> 80%,> 80%,< 80%,> 80%,< 80%
CCCCCO[C@H]1[C@H](C)OC(=O)[C@@H](NC(=O)c2nccc(OC)c2OCOC(C)=O)CCCC[C@@H]1OC(=O)c1ccccc1 [Compound 15],> 80%,> 80%,> 80%,> 80%,> 80%,> 80%,> 80%,< 80%
COc1ccnc(C(=O)N[C@H]2CCOC[C@H](Cc3ccccc3)[C@@H](OCC(C)C)[C@H](C)OC2=O)c1OCOC(C)=O [Compound 16],> 80%,> 80%,> 80%,> 80%,< 80%,< 80%,< 80%,< 80%
COc1ccnc(C(=O)N[C@H]2CCCC[C@H](OC)[C@@H](OC)[C@H](C)OC2=O)c1OCOC(C)=O [Compound 22],–,> 80%,–,–,–,< 80%,–,> 80%
CCCO[C@H]1CCCC[C@H](NC(=O)c2nccc(OC)c2OCOC(C)=O)C(=O)O[C@@H](C)[C@@H]1Oc1ccccc1 [Compound 23],–,> 80%,–,–,> 80%,> 80%,–,> 80%
COc1ccnc(C(=O)N[C@H]2CCCC[C@H](Cc3ccccc3)[C@@H](OCC(C)C)[C@H](C)OC2=O)c1OCOC(C)=O [Compound 24],–,> 80%,–,–,> 80%,> 80%,–,< 80%
COc1ccnc(C(=O)N[C@H]2CCCC[C@H](Oc3ccccc3)[C@@H](Oc3ccccc3)[C@H](C)OC2=O)c1OC(C)=O [Compound 25],–,> 80%,–,–,> 80%,< 80%,–,< 80%
CCCO[C@H]1CCCC[C@H](NC(=O)c2nccc(OC)c2OC(C)=O)C(=O)O[C@@H](C)[C@@H]1Oc1ccccc1 [Compound 26],–,> 80%,–,–,> 80%,> 80%,–,> 80%
COc1ccnc(C(=O)N[C@H]2CCCC[C@H](OC)[C@@H](OC)[C@H](C)OC2=O)c1OC(C)=O [Compound 27],–,> 80%,–,–,< 80%,–,–,> 80%
COc1ccnc(C(=O)N[C@H]2CCCC[C@H](OC)[C@@H](OCC(C)C)[C@H](C)OC2=O)c1OC(C)=O [Compound 28],–,> 80%,–,–,< 80%,> 80%,–,> 80%
COc1ccnc(C(=O)N[C@H]2CCCC[C@@H]3OC(C)(C)O[C@H]3[C@H](C)OC2=O)c1OC(C)=O [Compound 29],–,> 80%,–,–,< 80%,> 80%,–,> 80%
COc1ccnc(C(=O)N[C@H]2CCCC[C@H](OC3CCCC3)[C@@H](OC)[C@H](C)OC2=O)c1OCOC(C)=O [Compound 35],–,> 80%,–,–,–,–,–,< 80%
COc1ccnc(C(=O)N[C@H]2CCOC[C@H](OCC(C)C)[C@@H](OCC(C)C)[C@H](C)OC2=O)c1OCOC(C)=O [Compound 43],–,> 80%,–,–,–,–,–,< 80%
COc1ccnc(C(=O)N[C@H]2CCCC[C@H](OC)[C@@H](OC)[C@H](C)OC2=O)c1O [Compound 99],> 80%,–,–,–,–,–,–,–
